Assay results reported in patent US8906889B2, “C-3 cycloalkenyl triterpenoids with HIV maturation inhibitory activity” (priority 2012, dated 2014).
Counter-ions that a name gives are not always drawn.

Test system: recombinant NL4-3 virus (Renilla luciferase, Gag P373S)
Experiment: HIV cell culture assay (luciferase reporter, MT-2 cells)
Type: cell-based
Conditions: Renilla, NL43, MT-2 cells infected for 4-5 days with NLRluc recombinants; luciferase activity
Protocol: MT-2 cells and 293T cells were obtained from the NIH AIDS Research and Reference Reagent Program. MT-2 cells were propagated in RPMI 1640 media supplemented with 10% heat inactivated fetal bovine serum, […]. The 293T cells were propagated in DMEM media supplemented with 10% heat inactivated fetal bovine serum (FBS), 100 units/ml penicillin G and 100 μg/ml streptomycin. The proviral DNA clone of NL4-3 was obtained from the NIH AIDS Research and Reference Reagent Program. A recombinant NL4-3 virus, in which a section of the nef gene from NL4-3 was replaced with the Renilla luciferase gene, was used as a reference virus. In addition, residue Gag P373 was converted to P373S. Briefly, the recombinant virus was prepared by transfection of the altered proviral clone of NL4-3. Transfections were performed in 293T cells using LipofectAMINE PLUS from Invitrogen (Carlsbad, Calif.), according to manufacturer's instruction. The virus was titered in MT-2 cells using luciferase enzyme activity as a marker. Luciferase was quantitated using the Dual Luciferase kit from Promega (Madison, Wis.), with modifications to the manufacturer's protocol. The diluted Passive Lysis solution was pre-mixed with the re-suspended Luciferase Assay Reagent and the re-suspended Stop & Glo Substrate (2:1:1 ratio). Fifty (50) μL of the mixture was added to each aspirated well on assay plates and luciferase activity was measured immediately on a Wallac TriLux (Perkin-Elmer). Antiviral activities of inhibitors toward the recombinant virus were quantified by measuring luciferase activity in cells infected for 4-5 days with NLRluc recombinants in the presence serial dilutions of the inhibitor.

| SMILES | EC50 |
| --- | --- |
| C=C(C)[C@@H]1CC[C@]2(NCCN3CCS(=O)(=O)CC3)CC[C@]3(C)[C@H](CC[C@@H]4[C@@]5(C)CC=C(C6=CCC(C(=O)O)(C(=O)O)CC6)C(C)(C)[C@@H]5CC[C@]43C)[C@@H]12 [Example 7, 4-((1R,3aS,5aR,5bR,7aR,11aS,11bR,13aR,13bR)-3a-((2-(1,1-dioxidothiomorpholino)ethyl)amino)-5a,5b,8,8,11a-pentamethyl-1-(prop-1-en-2-yl)-2,3,3a,4,5,5a,5b,6,7,7a,8,11,11a,11b,12,13,13a,13b-octadecahydro-1H-cyclopenta[a]chrysen-9-yl)cyclohex-3-ene-1,1-dicarboxylic acid, TFA] | 100 nM |
| CC(C)[C@@H]1CC[C@]2(NCCN3CCS(=O)(=O)CC3)CC[C@]3(C)[C@H](CC[C@@H]4[C@@]5(C)CC=C(C6=CCC(C(=O)O)CC6)C(C)(C)[C@@H]5CC[C@]43C)[C@@H]12 (stereo partly drawn) [Example 8, 4-((1S,3aS,5aR,5bR,7aR,11aS,11bR,13aR,13bR)-3a-((2-(1,1-dioxidothiomorpholino)ethyl)amino)-1-isopropyl-5a,5b,8,8,11a-pentamethyl-2,3,3a,4,5,5a,5b,6,7,7a,8,11,11a,11b,12,13,13a,13b-octadecahydro-1H-cyclopenta[a]chrysen-9-yl)cyclohex-3-enecarboxylic acid, TFA] | 1.01 nM |
| C=C(C)[C@@H]1CC[C@]2(NCCN3CCS(=O)(=O)CC3)CC[C@]3(C)[C@H](CC[C@@H]4[C@@]5(C)CC=C(C6=CCC(O)(C(=O)O)CC6)C(C)(C)[C@@H]5CC[C@]43C)[C@@H]12 (stereo partly drawn) [Example 11, 4-((1R,3aS,5aR,5bR,7aR,11aS,11bR,13aR,13bR)-3a-((2-(1,1-dioxidothiomorpholino)ethyl)amino)-5a,5b,8,8,11a-pentamethyl-1-(prop-1-en-2-yl)-2,3,3a,4,5,5a,5b,6,7,7a,8,11,11a,11b,12,13,13a,13b-octadecahydro-1H-cyclopenta[a]chrysen-9-yl)-1-hydroxycyclohex-3-enecarboxylic acid, TFA] | 1.99 nM |
| C=C(C)[C@@H]1CC[C@]2(NCCN3CCN(S(C)(=O)=O)CC3)CC[C@]3(C)[C@H](CC[C@@H]4[C@@]5(C)CC=C(C6=CCC(C(=O)O)CC6)C(C)(C)[C@@H]5CC[C@]43C)[C@@H]12 (stereo partly drawn) [Example 12, 4-((1R,3aS,5aR,5bR,7aR,11aS,11bR,13aR,13bR)-5a,5b,8,8,11a-pentamethyl-3a-((2-(4-(methylsulfonyl)piperazin-1-yl)ethyl)amino)-1-(prop-1-en-2-yl)-2,3,3a,4,5,5a,5b,6,7,7a,8,11,11a,11b,12,13,13a,13b-octadecahydro-1H-cyclopenta[a]chrysen-9-yl)cyclohex-3-enecarboxylic acid, TFA] | 3.03 nM |
| C=C(C)[C@@H]1CC[C@]2(NCCN3CCC(S(C)(=O)=O)CC3)CC[C@]3(C)[C@H](CC[C@@H]4[C@@]5(C)CC=C(C6=CCC(C(=O)O)CC6)C(C)(C)[C@@H]5CC[C@]43C)[C@@H]12 (stereo partly drawn) [Example 13, 4-((1R,3aS,5aR,5bR,7aR,11aS,11bR,13aR,13bR)-5a,5b,8,8,11a-pentamethyl-3a-((2-(4-(methylsulfonyl)piperidin-1-yl)ethyl)amino)-1-(prop-1-en-2-yl)-2,3,3a,4,5,5a,5b,6,7,7a,8,11,11a,11b,12,13,13a,13b-octadecahydro-1H-cyclopenta[a]chrysen-9-yl)cyclohex-3-enecarboxylic acid, TFA] | 0.975 nM |
| C=C(C)[C@@H]1CC[C@]2(NCCN3CCOCC3)CC[C@]3(C)[C@H](CC[C@@H]4[C@@]5(C)CC=C(C6=CCC(C(=O)O)CC6)C(C)(C)[C@@H]5CC[C@]43C)[C@@H]12 (stereo partly drawn) [Example 14, 4-((1R,3aS,5aR,5bR,7aR,11aS,11bR,13aR,13bR)-5a,5b,8,8,11a-pentamethyl-3a-((2-morpholinoethyl)amino)-1-(prop-1-en-2-yl)-2,3,3a,4,5,5a,5b,6,7,7a,8,11,11a,11b,12,13,13a,13b-octadecahydro-1H-cyclopenta[a]chrysen-9-yl)cyclohex-3-enecarboxylic acid, TFA] | 5.61 nM |
| C=C(C)[C@@H]1CC[C@]2(NCCN3CCC(S(C)(=O)=O)CC3)CC[C@]3(C)[C@H](CC[C@@H]4[C@@]5(C)CC=C(C6=CC[C@H](C(=O)O)CC6)C(C)(C)[C@@H]5CC[C@]43C)[C@@H]12 [Example 15, (R)-4-((1R,3aS,5aR,5bR,7aR,11aS,11bR,13aR,13bR)-5a,5b,8,8,11a-pentamethyl-3a-((2-(4-(methylsulfonyl)piperidin-1-yl)ethyl)amino)-1-(prop-1-en-2-yl)-2,3,3a,4,5,5a,5b,6,7,7a,8,11,11a,11b,12,13,13a,13b-octadecahydro-1H-cyclopenta[a]chrysen-9-yl)cyclohex-3-enecarboxylic acid, TFA] | 1.36 nM |
| C=C(C)[C@@H]1CC[C@]2(NCCN3CCC(S(C)(=O)=O)CC3)CC[C@]3(C)[C@H](CC[C@@H]4[C@@]5(C)CC=C(C6=CC[C@@H](C(=O)O)CC6)C(C)(C)[C@@H]5CC[C@]43C)[C@@H]12 [Example 16, (S)-4-((1R,3aS,5aR,5bR,7aR,11aS,11bR,13aR,13bR)-5a,5b,8,8,11a-pentamethyl-3a-((2-(4-(methylsulfonyl)piperidin-1-yl)ethyl)amino)-1-(prop-1-en-2-yl)-2,3,3a,4,5,5a,5b,6,7,7a,8,11,11a,11b,12,13,13a,13b-octadecahydro-1H-cyclopenta[a]chrysen-9-yl)cyclohex-3-enecarboxylic acid, TFA] | 3.05 nM |
| C=C(C)[C@@H]1CC[C@]2(N)CC[C@]3(C)[C@H](CC[C@@H]4[C@@]5(C)CC=C(C6=CCC(C(=O)O)CC6)C(C)(C)[C@@H]5CC[C@]43C)[C@@H]12 (stereo partly drawn) [Example 17, 4-((1R,3aS,5aR,5bR,7aR,11aS,11bR,13aR,13bR)-3a-amino-5a,5b,8,8,11a-pentamethyl-1-(prop-1-en-2-yl)-2,3,3a,4,5,5a,5b,6,7,7a,8,11,11a,11b,12,13,13a,13b-octadecahydro-1H-cyclopenta[a]chrysen-9-yl)cyclohex-3-enecarboxylic acid, HCl] | 0.877 nM |
| C=C(C)[C@@H]1CC[C@]2(NCCO)CC[C@]3(C)[C@H](CC[C@@H]4[C@@]5(C)CC=C(C6=CCC(C(=O)O)CC6)C(C)(C)[C@@H]5CC[C@]43C)[C@@H]12 (stereo partly drawn) [Example 18, 4-((1R,3aS,5aR,5bR,7aR,11aS,11bR,13aR,13bR)-3a-((2-hydroxyethyl)amino)-5a,5b,8,8,11a-pentamethyl-1-(prop-1-en-2-yl)-2,3,3a,4,5,5a,5b,6,7,7a,8,11,11a,11b,12,13,13a,13b-octadecahydro-1H-cyclopenta[a]chrysen-9-yl)cyclohex-3-enecarboxylic acid, TFA] | 1.38 nM |
| C=C(C)[C@@H]1CC[C@]2(NCCO)CC[C@]3(C)[C@H](CC[C@@H]4[C@@]5(C)CC=C(C6=CC[C@H](C(=O)O)CC6)C(C)(C)[C@@H]5CC[C@]43C)[C@@H]12 [Example 19, (R)-4-((1R,3aS,5aR,5bR,7aR,11aS,11bR,13aR,13bR)-3a-((2-hydroxyethyl)amino)-5a,5b,8,8,11a-pentamethyl-1-(prop-1-en-2-yl)-2,3,3a,4,5,5a,5b,6,7,7a,8,11,11a,11b,12,13,13a,13b-octadecahydro-1H-cyclopenta[a]chrysen-9-yl)cyclohex-3-enecarboxylic acid, TFA] | 1.14 nM |
| C=C(C)[C@@H]1CC[C@]2(NCCO)CC[C@]3(C)[C@H](CC[C@@H]4[C@@]5(C)CC=C(C6=CC[C@@H](C(=O)O)CC6)C(C)(C)[C@@H]5CC[C@]43C)[C@@H]12 [Example 20, (S)-4-((1R,3aS,5aR,5bR,7aR,11aS,11bR,13aR,13bR)-3a-((2-hydroxyethyl)amino)-5a,5b,8,8,11a-pentamethyl-1-(prop-1-en-2-yl)-2,3,3a,4,5,5a,5b,6,7,7a,8,11,11a,11b,12,13,13a,13b-octadecahydro-1H-cyclopenta[a]chrysen-9-yl)cyclohex-3-enecarboxylic acid, TFA] | 1.57 nM |
| C=C(C)[C@@H]1CC[C@]2(NCCN3CCS(=O)(=O)CC3)CC[C@]3(C)[C@H](CC[C@@H]4[C@@]5(C)CC=C(C6=CCC(C(=O)NS(C)(=O)=O)CC6)C(C)(C)[C@@H]5CC[C@]43C)[C@@H]12 (stereo partly drawn) [Example 21, 4-((1R,3aS,5aR,5bR,7aR,11aS,11bR,13aR,13bR)-3a-((2-(1,1-dioxidothiomorpholino)ethyl)amino)-5a,5b,8,8,11a-pentamethyl-1-(prop-1-en-2-yl)-2,3,3a,4,5,5a,5b,6,7,7a,8,11,11a,11b,12,13,13a,13b-octadecahydro-1H-cyclopenta[a]chrysen-9-yl)-N-(methylsulfonyl)cyclohex-3-enecarboxamide, TFA] | 1.8 nM |
